# Reference: patent US8778982B2, “Synergistic microbicidal compositions” (Rohm and Haas Company, priority 2007, dated 2014)
# Experiments:
# Assay type in all cases: cell-based
# [1] = system: Candida albicans (C. albicans—ATCC 10231); test: Synergy test, microtiter plate high resolution MIC assay, PDB medium, yeast
# Excerpt: (§1) One measure of synergism is the industrially accepted method described by Kull, F. C.; Eisman, P. C.; Sylwestrowicz, H. D. and Mayer, R. L., in Applied Microbiology 9:538-541 (1961), using the ratio determined by the formula: Qa/QA+Qb/QB=Synergy Index(“SI”) wherein: • QA=concentration of compound A (first component) in ppm, acting alone, which produced an end point (MIC of Compound A). • Qa=concentration of compound A in ppm, in the mixture, which produced an end point. • QB=concentration of compound B (second component) in ppm, acting alone, which produced an end point (MIC of Compound B). • Qb=concentration of compound B in ppm, in the mixture, which produced an end point.
# (§2) When the sum of Qa/QA and Qb/QB is greater than one, antagonism is indicated. […] The lower the SI, the greater is the synergy shown by that particular mixture. The minimum inhibitory concentration (MIC) of a microbicide is the lowest concentration tested under a specific set of conditions that prevents the growth of the tested microorganisms.
# (§3) Synergy tests were conducted using standard microtiter plate assays with media designed for optimal growth of the test microorganism. Minimal salt medium supplemented with 0.2% glucose and 0.1% yeast extract (M9GY medium) was used for testing bacteria; Potato Dextrose Broth (PDB medium) was used for testing yeast and mold. In this method, a wide range of combinations of microbicides and other personal care raw materials was tested by conducting high resolution MIC assays in the presence of various concentrations of CMIT/MIT, MIT, or BIT. High resolution MICs were determined by adding varying amounts of microbicide to one column of a microtitre plate and doing subsequent […] dilutions using an automated liquid handling system to obtain a series of endpoints ranging from 2 ppm to 10,000 ppm active ingredient.
# (§4) The synergy of the combinations of the present invention was determined against a bacterium, Escherichia coli (E. coli—ATCC #8739), a yeast, Candida albicans (C. albicans—ATCC 10231), and a mold, Aspergillus niger (A. niger—ATCC 16404). The bacteria were used at a concentration of about 5×10^6 bacteria per mL and the yeast and mold at 5×10^5 fungi per mL. These microorganisms are representative of natural contaminants in many consumer and industrial applications. […] (yeast and mold) or 30° C. (bacteria).
# [2] = system: Escherichia coli (E. coli—ATCC #8739); test: Synergy test, microtiter plate high resolution MIC assay, M9GY medium, bacterium
# Excerpt: as §1, §2, §3, §4
# [3] = system: Aspergillus niger (A. niger—ATCC 16404); test: Synergy test, microtiter plate high resolution MIC assay, PDB medium, mold
# Excerpt: as §1, §2, §3, §4
molecule,measurement,setting,value
"1-propanaminium, 3,3′,3″-[phosphinylidynetris(oxy)]-tris-[N-(aminopropyl)-2-hydroxy-N,N-dimethyl-N,N′,N″-tri-C6-18 acyl deriv. trichlorides",Synergy Index (SI) = Qa/QA+Qb/QB,"[1]; C. albicans 10231, PDB, 1 day",1.00
same,MIC of the component acting alone (QA or QB),"[1]; C. albicans 10231, PDB, 1 day, 25° C.",800 ppm
same,MIC of the component acting alone (Qa or Qb with the other component at 0),"[1]; C. albicans 10231, PDB, 2 days",2000 ppm
same,SI (synergy index),"[1]; C. albicans 10231, PDB, 2 days",1.00
same,SI,"[1]; C. albicans 10231 - PDB (6 days), A = MIT, B = Myristamidopropyl PG-dimonium chloride phosphate",1.00
same,Qb,"[1]; C. albicans 10231 - PDB (6 days), A = MIT, B = Myristamidopropyl PG-dimonium chloride phosphate, B alone where Qa = 0",1000 ppm
same,MIC of the component acting alone (Qa or Qb with the other component at 0),"[2]; E. coli 8739, M9GY, 1 day",80 ppm
same,SI (synergy index),"[2]; E. coli 8739, M9GY, 1 day",1.00
same,Synergy Index (SI) = Qa/QA+Qb/QB,"[2]; E. coli 8739, M9GY, 2 days",1.00
same,MIC of the component acting alone (QA or QB),"[2]; E. coli 8739, M9GY, 2 days, 30° C.",100 ppm
same,SI,"[2]; E. coli 8739 - M9GY (1 day), A = MIT, B = Myristamidopropyl PG-dimonium chloride phosphate",1.00
same,Qb,"[2]; E. coli 8739 - M9GY (1 day), A = MIT, B = Myristamidopropyl PG-dimonium chloride phosphate, B alone where Qa = 0",80 ppm
same,Synergy Index (SI) = Qa/QA+Qb/QB,"[3]; A. niger 16404, PDB, 3 days",1.00
same,MIC of the component acting alone (QA or QB),"[3]; A. niger 16404, PDB, 3 days, 25° C.",2000 ppm
same,MIC of the component acting alone (Qa or Qb with the other component at 0),"[3]; A. niger 16404, PDB, 4 days",2000 ppm
same,SI (synergy index),"[3]; A. niger 16404, PDB, 4 days",1.00
same,SI,"[3]; A. niger 16404 - PDB (3 days), A = MIT, B = Myristamidopropyl PG-dimonium chloride phosphate",1.00
same,Qb,"[3]; A. niger 16404 - PDB (3 days), A = MIT, B = Myristamidopropyl PG-dimonium chloride phosphate, B alone where Qa = 0",2000 ppm
CCCCC(CC)COCC(O)CO (stereo not drawn) [Ehylhexylglycerin],MIC of the component acting alone (Qa or Qb with the other component at 0),"[1]; C. albicans 10231, PDB, 6 days",10000 ppm
same,SI (synergy index),"[1]; C. albicans 10231, PDB, 6 days",1.00
same,MIC of the component acting alone (Qa or Qb with the other component at 0),"[2]; E. coli 8739, M9GY, 2 days",3000 ppm
same,SI (synergy index),"[2]; E. coli 8739, M9GY, 2 days",1.00
same,MIC of the component acting alone (Qa or Qb with the other component at 0),"[3]; A. niger 16404, PDB, 3 days",2000 ppm
same,SI (synergy index),"[3]; A. niger 16404, PDB, 3 days",1.00
